Test results taken from US20210186970A1, “SELECTIVE CALCIUM CHANNEL ANTAGONISTS” (Northwestern University, priority 2011, published 2021).
pIC50: −log10 of the molar value. Like-named read-outs stand apart in the source and are kept apart here.

Experiments:
[1] = molecular target: T1, Cav1.3 L-type Ca channels (Rattus norvegicus, UniProt P27732); test: FLIPR Fluo-8 calcium assay, Cav1.3 channel inhibition in HEK293 cells; format: cell-based
T1 construct: expressed in transfected cells; host or cells: HEK293

[2] = molecular target: Cav1.2 L-type Ca channels (Oryctolagus cuniculus, UniProt P15381); test: FLIPR Fluo-8 calcium assay, Cav1.2 channel inhibition in HEK293 cells
Sequence of Cav1.2 L-type Ca channels (P15381 whole entry): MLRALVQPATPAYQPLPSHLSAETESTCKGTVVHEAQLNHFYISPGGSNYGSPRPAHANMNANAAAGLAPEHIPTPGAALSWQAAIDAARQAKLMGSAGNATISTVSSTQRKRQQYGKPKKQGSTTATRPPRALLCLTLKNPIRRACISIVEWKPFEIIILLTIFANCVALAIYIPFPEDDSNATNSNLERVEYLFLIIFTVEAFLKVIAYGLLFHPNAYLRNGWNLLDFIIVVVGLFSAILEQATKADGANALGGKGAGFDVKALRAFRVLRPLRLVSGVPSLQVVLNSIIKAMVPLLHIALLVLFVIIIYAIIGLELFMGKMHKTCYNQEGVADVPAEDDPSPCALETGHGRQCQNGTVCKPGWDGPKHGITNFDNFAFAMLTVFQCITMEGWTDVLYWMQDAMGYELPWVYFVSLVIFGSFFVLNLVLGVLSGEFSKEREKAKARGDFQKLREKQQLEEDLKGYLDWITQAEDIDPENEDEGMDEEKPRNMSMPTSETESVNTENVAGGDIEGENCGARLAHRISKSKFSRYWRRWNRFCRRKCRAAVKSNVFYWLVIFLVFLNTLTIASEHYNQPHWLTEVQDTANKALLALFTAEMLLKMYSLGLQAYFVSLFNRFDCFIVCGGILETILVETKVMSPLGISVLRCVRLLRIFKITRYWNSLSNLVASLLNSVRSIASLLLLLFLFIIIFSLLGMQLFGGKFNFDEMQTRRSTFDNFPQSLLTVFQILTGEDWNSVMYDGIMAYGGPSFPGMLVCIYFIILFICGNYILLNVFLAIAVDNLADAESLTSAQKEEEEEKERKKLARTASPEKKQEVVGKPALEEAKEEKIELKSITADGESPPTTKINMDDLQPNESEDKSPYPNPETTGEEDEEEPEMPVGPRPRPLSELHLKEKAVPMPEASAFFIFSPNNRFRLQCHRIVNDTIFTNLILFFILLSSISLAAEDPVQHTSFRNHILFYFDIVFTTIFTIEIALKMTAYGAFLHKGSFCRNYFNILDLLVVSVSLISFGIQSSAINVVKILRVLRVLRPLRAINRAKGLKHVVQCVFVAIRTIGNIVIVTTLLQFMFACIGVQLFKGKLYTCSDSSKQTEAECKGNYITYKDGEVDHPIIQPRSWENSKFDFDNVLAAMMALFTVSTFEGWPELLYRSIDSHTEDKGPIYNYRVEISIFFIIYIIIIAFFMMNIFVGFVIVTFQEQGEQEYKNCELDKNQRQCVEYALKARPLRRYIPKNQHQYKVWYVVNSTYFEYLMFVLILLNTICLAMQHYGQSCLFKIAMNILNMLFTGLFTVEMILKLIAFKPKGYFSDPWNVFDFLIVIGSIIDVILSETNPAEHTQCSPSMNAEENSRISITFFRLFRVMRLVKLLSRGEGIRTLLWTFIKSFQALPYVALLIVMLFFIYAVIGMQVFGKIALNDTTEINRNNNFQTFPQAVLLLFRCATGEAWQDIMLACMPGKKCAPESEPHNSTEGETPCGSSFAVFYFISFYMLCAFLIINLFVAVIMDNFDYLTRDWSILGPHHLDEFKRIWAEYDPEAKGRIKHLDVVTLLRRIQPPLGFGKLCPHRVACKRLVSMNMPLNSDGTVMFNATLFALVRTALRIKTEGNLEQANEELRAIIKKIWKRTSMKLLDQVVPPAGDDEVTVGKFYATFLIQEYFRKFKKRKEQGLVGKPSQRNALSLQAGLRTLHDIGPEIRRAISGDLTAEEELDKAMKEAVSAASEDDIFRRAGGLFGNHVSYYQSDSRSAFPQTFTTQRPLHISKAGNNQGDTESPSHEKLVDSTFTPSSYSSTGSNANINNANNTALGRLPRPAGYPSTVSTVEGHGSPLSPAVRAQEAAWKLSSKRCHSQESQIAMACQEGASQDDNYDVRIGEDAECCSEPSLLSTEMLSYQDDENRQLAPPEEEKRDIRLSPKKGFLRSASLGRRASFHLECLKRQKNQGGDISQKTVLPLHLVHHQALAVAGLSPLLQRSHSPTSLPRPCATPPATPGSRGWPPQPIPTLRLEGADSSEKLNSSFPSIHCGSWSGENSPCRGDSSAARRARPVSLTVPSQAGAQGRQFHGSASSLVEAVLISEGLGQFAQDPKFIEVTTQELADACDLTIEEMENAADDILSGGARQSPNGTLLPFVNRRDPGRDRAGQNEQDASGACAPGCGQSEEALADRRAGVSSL
Sequence of Cav1.2 L-type Ca channels (P54284 whole entry partner): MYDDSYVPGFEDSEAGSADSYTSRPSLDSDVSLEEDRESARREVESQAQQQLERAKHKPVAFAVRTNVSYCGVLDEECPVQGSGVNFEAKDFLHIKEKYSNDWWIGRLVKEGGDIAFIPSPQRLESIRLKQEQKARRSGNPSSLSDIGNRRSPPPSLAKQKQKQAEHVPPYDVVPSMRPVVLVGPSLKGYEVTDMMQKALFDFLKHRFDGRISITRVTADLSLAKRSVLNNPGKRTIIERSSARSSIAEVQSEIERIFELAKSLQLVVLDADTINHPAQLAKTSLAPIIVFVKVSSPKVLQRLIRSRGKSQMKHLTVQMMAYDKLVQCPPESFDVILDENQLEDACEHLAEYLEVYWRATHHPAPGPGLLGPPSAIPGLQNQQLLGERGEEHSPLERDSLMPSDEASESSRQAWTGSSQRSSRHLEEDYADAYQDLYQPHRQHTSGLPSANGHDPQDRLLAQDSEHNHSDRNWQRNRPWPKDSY
Sequence of Cav1.2 L-type Ca channels (P54289 25-956 partner limits assumed): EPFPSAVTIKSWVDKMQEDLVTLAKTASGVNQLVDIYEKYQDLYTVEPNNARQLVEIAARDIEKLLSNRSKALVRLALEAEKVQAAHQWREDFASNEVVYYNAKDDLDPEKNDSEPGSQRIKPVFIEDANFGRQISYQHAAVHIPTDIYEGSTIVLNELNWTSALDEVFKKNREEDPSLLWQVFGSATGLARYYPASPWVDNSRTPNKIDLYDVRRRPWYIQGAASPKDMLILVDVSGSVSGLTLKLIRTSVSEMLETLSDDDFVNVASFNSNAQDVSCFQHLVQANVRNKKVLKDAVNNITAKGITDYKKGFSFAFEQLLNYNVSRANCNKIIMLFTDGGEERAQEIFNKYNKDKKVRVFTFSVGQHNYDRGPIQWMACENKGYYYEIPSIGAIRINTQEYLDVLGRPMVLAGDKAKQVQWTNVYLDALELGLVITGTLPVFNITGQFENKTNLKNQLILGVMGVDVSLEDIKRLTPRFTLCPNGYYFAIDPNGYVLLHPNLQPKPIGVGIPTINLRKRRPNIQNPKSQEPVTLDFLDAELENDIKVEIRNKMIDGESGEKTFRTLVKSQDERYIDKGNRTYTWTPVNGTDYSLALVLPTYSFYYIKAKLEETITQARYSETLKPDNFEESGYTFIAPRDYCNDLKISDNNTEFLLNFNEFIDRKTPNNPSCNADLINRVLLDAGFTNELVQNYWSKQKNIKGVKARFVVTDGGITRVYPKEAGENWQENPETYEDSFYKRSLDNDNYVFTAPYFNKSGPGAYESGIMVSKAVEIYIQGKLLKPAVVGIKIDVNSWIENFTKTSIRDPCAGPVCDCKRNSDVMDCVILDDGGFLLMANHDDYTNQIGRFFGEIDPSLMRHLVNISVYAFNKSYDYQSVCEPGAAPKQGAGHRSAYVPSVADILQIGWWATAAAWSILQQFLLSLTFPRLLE
Sequence of Cav1.2 L-type Ca channels (P54289 957-1103 partner limits assumed): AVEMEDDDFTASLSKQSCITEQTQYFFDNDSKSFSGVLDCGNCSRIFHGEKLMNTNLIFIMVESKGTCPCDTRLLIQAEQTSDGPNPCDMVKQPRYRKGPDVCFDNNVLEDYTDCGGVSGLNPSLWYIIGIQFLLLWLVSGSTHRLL

[3] = IC50 (μM) Cav1.3, third library, FLIPR, HEK293, value (±SD)
[4] = third library, ratio of IC50 Cav1.2 to Cav1.3
[5] = IC50 (μM) Cav1.2, third library, FLIPR, HEK293, value (±SD)
[6] = IC50 (μM) CaV1.3, first library, FLIPR, HEK293, value (±SD)
[7] = first library, ratio of IC50 Cav1.2 to Cav1.3
[8] = IC50 (μM) CaV1.2, first library, FLIPR, HEK293, value (±SD)
[9] = IC50 (μM) Cav1.3, second library, FLIPR, HEK293, value (±SD)
[10] = second library, ratio of IC50 Cav1.2 to Cav1.3
[11] = IC50 (μM) Cav1.2, second library, FLIPR, HEK293, value (±SD)
[12] = third library, FLIPR, HEK293, value (±SD), read-out: IC50 (μM) Cav1.3
[13] = first library, FLIPR, HEK293, value (±SD), read-out: IC50 (μM) CaV1.3

Row | Compound | IC50 [1, 3] | Selectivity [1, 4] | IC50 [2, 5] | IC50 [1, 6] | Selectivity [1, 7] | IC50 [2, 8] | also measured
1 | Cc1ccc(CCN2C(=O)CC(=O)N(C3CCCC3)C2=O)cc1 [Compound 98] | 1.7 µM | 20.7 | 35.8 µM | – | – | – | –
2 | O=C1CC(=O)N(C2CCCCCC2)C(=O)N1CCc1cccc(Cl)c1 [Compound 91] | 2.5 µM | 18.5 | 45.6 µM | – | – | – | –
3 | CC(CN1C(=O)CC(=O)N(CCc2ccc(Cl)cc2)C1=O)c1ccccc1 (stereo not drawn) [Compound 21] | – | – | – | 1.3 µM | 5.0 | 6.2 µM | –
4 | O=C1CC(=O)N(CCc2c(Cl)cccc2Cl)C(=O)N1CCc1ccc(Cl)cc1 [Compound 15] | – | – | – | 2.7 µM | 0.7 | 1.9 µM | –
5 | CN1C(=O)CC(=O)N(Cc2cccc([N+](=O)[O-])c2)C1=O [Compound 69] | – | – | – | – | – | – | pIC50 [2]: 3.78
6 | Cc1ccc(CCN2C(=O)CC(=O)N(CCCCc3ccccc3)C2=O)cc1 [Compound 41] | – | – | – | 1.1 µM | 14.1 | 15.5 µM | –
7 | O=C1CC(=O)N(CCc2cccc(Cl)c2)C(=O)N1CCCCc1ccccc1 [Compound 38] | – | – | – | 1.3 µM | 4.9 | 6.2 µM | –
8 | Cc1ccc(CCN2C(=O)CC(=O)N(C3CCCCC3)C2=O)cc1 [Compound 74] | – | – | – | – | – | – | IC50 [1, 9]: 1.8 µM; Selectivity [1, 10]: 3.4; IC50 [2, 11]: 6.1 µM
9 | O=C1CC(=O)N(C2CCC2)C(=O)N1CCc1ccc(Cl)cc1 [Compound 100] | – | 2.8 | 4.9 µM | – | – | – | IC50 [1, 12]: 1.8 µM
10 | O=C1CC(=O)N(CCc2ccc(Cl)cc2)C(=O)N1CCCc1ccccc1 [Compound 27] | – | – | – | 1.1 µM | 1.9 | 2.1 µM | –
11 | O=C1CC(=O)N(C23CC4CC(CC(C4)C2)C3)C(=O)N1CCc1cccc(Cl)c1 [Compound 115] | 2.6 µM | 0.7 | 1.9 µM | – | – | – | –
12 | O=C1CC(=O)N([C@H]2C[C@@H]3CC[C@H]2C3)C(=O)N1CCc1cccc(Cl)c1 (racemic) [Compound 112] | – | – | 6.3 µM | – | – | – | IC50 [1, 12]: 1.9 µM
13 | O=C1CC(=O)N(Cc2ccc(Cl)cc2)C(=O)N1CCc1ccc(Cl)cc1 [Compound 25] | – | – | – | 2.1 µM | 0.9 | 1.9 µM | –
14 | O=C1CC(=O)N(CCc2ccc(Br)cc2)C(=O)N1CCc1ccc(Cl)cc1 [Compound 16] | – | – | – | 1.6 µM | 1.3 | 2.1 µM | –
15 | O=C1CC(=O)N(CCc2ccc(F)cc2)C(=O)N1CCCc1ccccc1 [Compound 55] | – | – | – | – | 1.7 | 2.2 µM | IC50 [1, 13]: 1.3 µM
16 | O=C1CC(=O)N(CCc2ccc(Cl)c(Cl)c2)C(=O)N1CCc1ccc(Cl)cc1 [Compound 14] | – | – | – | 1.9 µM | 0.7 | 1.3 µM | –
17 | O=C1CC(=O)N(CCc2cccc(F)c2)C(=O)N1CCc1ccc(Cl)cc1 [Compound 19] | – | – | – | 1.9 µM | 1.5 | 2.8 µM | –
18 | CCC(C)N1C(=O)CC(=O)N(CCc2cccc(Cl)c2)C1=O (stereo not drawn) [Compound 107] | 1.9 µM | 23.6 | – | – | – | – | pIC50 [2]: 4.34
19 | CC(CN1C(=O)CC(=O)N(C2CCCC2)C1=O)c1ccccc1 (racemic) [Compound 96] | 1 µM | 17.6 | 16.9 µM | – | – | – | –
20 | O=C1CC(=O)N(CC2CCCCC2)C(=O)N1CCc1cccc(C(F)(F)F)c1 [Compound 111] | 0.9 µM | 22.1 | 20.4 µM | – | – | – | –
21 | O=C1CC(=O)N(C2CCCCC2)C(=O)N1CCCc1ccccc1 [Compound 84] | – | – | – | – | – | – | IC50 [1, 9]: 6.3 µM; Selectivity [1, 10]: 4.9; IC50 [2, 11]: 30.5 µM
22 | O=C1CC(=O)N(CCc2cccc(C(F)(F)F)c2)C(=O)N1CCc1ccc(Cl)cc1 [Compound 20] | – | – | – | 0.4 µM | 6.2 | 2.8 µM | –
23 | Cc1cccc(CCN2C(=O)CC(=O)N(C3CCCCCC3)C2=O)c1 [Compound 93] | 13.2 µM | 2.3 | 30.7 µM | – | – | – | –
24 | O=C1CC(=O)N(C2CCCCC2)C(=O)N1CCOc1ccccc1 [Compound 88] | – | – | – | – | – | – | IC50 [1, 9]: 9.5 µM; Selectivity [1, 10]: 1.2; IC50 [2, 11]: 11.8 µM
25 | O=C1CC(=O)N(C2Cc3ccccc3C2)C(=O)N1CCc1ccc(Cl)cc1 [Compound 31] | – | – | – | 1.3 µM | 2.2 | 3 µM | –
26 | C=CCOC(=O)[C@H](Cc1ccccc1)N1C(=O)CC(=O)N(CCc2ccc(Cl)cc2)C1=O [Compound 37] | – | – | – | 9.4 µM | 1.0 | 9.1 µM | –
27 | O=C1CC(=O)N(CCc2ccc(Cl)c(Cl)c2)C(=O)N1CCCc1ccccc1 [Compound 54] | – | – | – | 4.3 µM | 1.6 | 6.9 µM | –

Row | Compound | IC50 [1, 3] | Selectivity [1, 4] | IC50 [2, 5] | IC50 [1, 6] | Selectivity [1, 7] | IC50 [2, 8] | also measured
28 | O=C1CC(=O)N(c2cccc(F)c2)C(=O)N1CCc1cccc(Cl)c1 [Compound 103] | 18.6 µM | 0.5 | 9.7 µM | – | – | – | –
29 | O=C1CC(=O)N(C2CCCCCC2)C(=O)N1CCc1cccc(C(F)(F)F)c1 [Compound 90] | 1.7 µM | 3.4 | 5.7 µM | – | – | – | –
30 | Cc1ccc(CCN2C(=O)CC(=O)N(C3CCCCCC3)C2=O)cc1 [Compound 94] | 0.9 µM | 16.0 | 14.9 µM | – | – | – | –
31 | CC(Cc1ccccc1)N1C(=O)CC(=O)N(C2CCCC2)C1=O (racemic) [Compound 95] | 0.7 µM | 23.0 | 16 µM | – | – | – | –
32 | O=C1CC(=O)N(CCc2cccc(Cl)c2)C(=O)N1CCc1ccc(Cl)cc1 [Compound 12] | – | – | – | 1.9 µM | 2.3 | 4.4 µM | –
33 | O=C1CC(=O)N(CCc2ccc3ccccc3c2)C(=O)N1CCCc1ccccc1 [Compound 61] | – | – | – | 1 µM | 1.3 | 1.2 µM | –
34 | O=C1CC(=O)N(C2CCC2)C(=O)N1CCc1cccc(Cl)c1 [Compound 99] | 2.7 µM | 5.4 | – | – | – | – | pIC50 [2]: 4.84
35 | O=C1CC(=O)N(CCc2cccc([N+](=O)[O-])c2)C(=O)N1CCc1ccc(Cl)cc1 [Compound 24] | – | – | – | 2.7 µM | 1.0 | 2.6 µM | –
36 | COC(=O)CN1C(=O)CC(=O)N(CCc2ccc(Cl)cc2)C1=O [Compound 34] | – | – | – | 108 µM | – | – | –
37 | O=C1CC(=O)N(Cc2cccc([N+](=O)[O-])c2)C(=O)N1CCc1ccc(Cl)cc1 [Compound 22] | – | – | – | 21.2 µM | 0.4 | 9.5 µM | –
38 | O=C1CC(=O)N(Cc2ccc([N+](=O)[O-])cc2)C(=O)N1CCCCc1ccccc1 [Compound 45] | – | – | – | 7.7 µM | 0.6 | 4.4 µM | –
39 | O=C1CC(=O)N([C@@H]2C[C@@H]3CC[C@H]2C3)C(=O)N1CCc1cccc(Cl)c1 (racemic) [Compound 9, N-(3-chlorophenethyl)-N′-(+)-endo-norbornyl-pyrimidine-2,4,6-(1H,3H,5H)-trione] | – | – | 20.1 µM | – | – | – | IC50 ([1]; Table 4, 12 concentration points (0.1 nM~100 μM) in duplicate, read-out: IC50 (μM) Cav1.3): 0.8 µM; pIC50 ([1]; read-out: IC50 with Cav1.3): 6.10; IC50 [1, 12]: 0.8 µM; IC50 ([2]; IC50 (μM) Cav1.2, Table 4, 12 concentration points (0.1 nM~100 μM) in duplicate): 20.1 µM
40 | O=C1CC(=O)N(C2C3CC4CC(C3)CC2C4)C(=O)N1CCc1cccc(Cl)c1 (stereo not drawn) [Compound 117] | 1.6 µM | 2.0 | 3.1 µM | – | – | – | –
41 | O=C1CC(=O)N(CCc2ccc3ccccc3c2)C(=O)N1CCc1ccc(Cl)c(Cl)c1 [Compound 63] | – | – | – | 4 µM | 1.0 | 3.8 µM | –
42 | O=C1CC(=O)N(C2CCCCC2)C(=O)N1CCc1ccccc1Cl [Compound 76] | – | – | – | – | – | – | IC50 [1, 9]: 5.2 µM; Selectivity [1, 10]: 7.7; IC50 [2, 11]: 44.5 µM
43 | COC(=O)[C@H](CC(C)C)N1C(=O)CC(=O)N(CCc2ccc(Cl)cc2)C1=O [Compound 36] | – | – | – | 20.6 µM | 0.8 | 17.1 µM | –
44 | O=C1CC(=O)N(C2CC2)C(=O)N1CCc1ccc(Cl)cc1 [Compound 102] | 19.6 µM | 0.3 | – | – | – | – | pIC50 [2]: 5.30
45 | N#Cc1ccc(CCN2C(=O)CC(=O)N(C3CCCCC3)C2=O)cc1 [Compound 78] | – | – | – | – | – | – | IC50 [1, 9]: 49.8 µM; Selectivity [1, 10]: 1.1; IC50 [2, 11]: 56 µM
46 | O=C1CC(=O)N(Cc2ccc(Cl)cc2)C(=O)N1CCCc1ccccc1 [Compound 59] | – | – | – | 21.9 µM | 1.2 | 26 µM | –
47 | O=C1CC(=O)N(C2CCCCC2)C(=O)N1Cc1ccc(Cl)cc1 [Compound 82] | – | – | – | – | – | – | Selectivity [1]: 14.7; IC50 [1, 9]: 8.1 µM; IC50 [2, 11]: 119 µM
48 | O=C1CC(=O)N(CCc2ccc(Cl)cc2)C(=O)N1CCCCc1ccccc1 [Compound 26] | – | – | – | 0.9 µM | 0.9 | 0.8 µM | –
49 | CCCCCCCCN1C(=O)CC(=O)N(CCc2ccc3ccccc3c2)C1=O [Compound 67] | – | – | – | – | 4.8 | 8.9 µM | IC50 [1, 13]: 1.9 µM
50 | O=C1CC(=O)N(CC2CCCCC2)C(=O)N1CCc1cccc(Cl)c1 [Compound 109] | 1.5 µM | 30.5 | 44.6 µM | – | – | – | –
51 | O=C1CC(=O)N(CC2CCCCC2)C(=O)N1CCc1ccc(Cl)cc1 [Compound 110] | 1.7 µM | 27.3 | 46.8 µM | – | – | – | –
52 | O=C1CC(=O)N(Cc2ccc(Cl)cc2)C(=O)N1CCc1ccc2ccccc2c1 [Compound 66] | – | – | – | 1.7 µM | – | – | pIC50 [2]: 5.62
53 | O=C1CC(=O)N(CCc2cccc([N+](=O)[O-])c2)C(=O)N1CCc1cccc([N+](=O)[O-])c1 [Compound 70] | – | – | – | – | – | – | pIC50 [2]: 3.76
